From PubChem BioAssay AID489027 (Sanford-Burnham Center for Chemical Genomics, 2010)
Active and inactive are the calls of the source. No rule for the calls is given here.

molecular target: UPR counterscreen luciferase reporter, luminescence; experiment: luciferase reporter activation, UPR counterscreen line – cell-based, luminescence, counter-screen for adaptive UPR activator project, dose response (AID 489027)

SMILES	EC50
C=CCN=C1S/C(=C/c2cccc([N+](=O)[O-])c2)C(=O)N1CC=C	inactive
CCN(CC)c1ccc(N=Cc2c(O)n(Cc3ccccc3)c(=O)[nH]c2=O)cc1	inactive
Cc1ccc(C(=O)Nc2cc(S(=O)(=O)N3CCOCC3)ccc2N2CCCC2)cc1	inactive
CCCNC(=O)c1ccc2c(=O)c(O)c(-c3ccc(OC)cc3)[nH]c2c1	> 80 µM (inactive)
COc1ccc(C(CCNC(C)c2ccccc2)c2ccc(F)cc2)cc1 (stereo unspecified)	inactive
O=C(Cc1ccccc1)c1c[nH]c(C(=O)C(Cl)(Cl)Cl)c1	inactive
Cc1ccc(NC(=O)Cn2c(/C=C/c3ccccc3)nc3ccccc32)cc1C	> 80 µM (inactive)
COc1ccc(-c2csc(NC(=S)NC(=O)/C=C/c3ccco3)n2)cc1Br	inactive
CCN=C1S/C(=C\c2cn(CC(=O)NCc3ccco3)c3ccccc23)C(=O)N1CC	> 80 µM (inactive)
COc1ccc(C(=O)Oc2cc3c4c(c2)C(C)=CC(C)(C)N4C(=O)C3=O)cc1OC	inactive
CCN(CC)c1ccc(N=Cc2c(O)n(-c3ccc(Cl)cc3)c(=O)[nH]c2=O)cc1	20 µM
C[C@@H]1C[C@H]2[C@@H]3CCC4=CC(=O)C=C[C@]4(C)[C@@]3(Cl)[C@@H](O)C[C@]2(C)[C@@]1(OC(=O)c1ccco1)C(=O)CCl	> 80 µM (inactive)
CCCCNC(=O)c1ccc(Cn2c(=S)[nH]c3c([nH]c4ccc(OC)cc43)c2=O)cc1	> 80 µM (inactive)
COc1cc2c(cc1NC(=S)NC(=O)/C=C/c1ccco1)oc1ccccc12	inactive
Cc1cccc(N2CCN(C(=S)Nc3ccc4nc(N5CCN(C)CC5)cc(C)c4c3)CC2C)c1 (stereo unspecified)	> 80 µM (inactive)
c1ccc(N=Nc2ccc3cccccc2-3)cc1	11 µM
COc1ccc2c(c1)[nH]c1c(=O)n(/N=C/C3C(C)C=C(C)CC3C)c(=O)[nH]c12 (stereo unspecified)	inactive
Cc1cccn2c(=O)c3cc(C(=O)NC4CCCCCC4)sc3nc12	> 80 µM (inactive)
Oc1ccc(/C=N/Nc2cc(N3CCOCC3)nc(N3CCOCC3)n2)cc1O	3.8 µM
O=C(NCCc1ccc(O)c(O)c1)C1COc2ccccc2O1 (stereo unspecified)	16.8 µM
FC(F)(F)c1nnc2c(Sc3ccc(Cl)cc3)nc3ccccc3n12	4.67 µM
